Source: patent US7026339B2, “Inhibitors of HCV NS5B polymerase” (priority 2003, dated 2006)

Tested on: HuH-7 replicon cells 5–15 and 9–13 (HCV replication)
Assay: Inhibition of viral replication in HuH-7 replicon cells (HCV RNA / GAPDH RNA by multiplex RT-PCR)
Format: cell-based
Conditions: Hepatitis C virus, 72 h; inhibiting 50% of replication; HuH-7 replicon cells, 3 days; read-out: IC50
Protocol: Compounds were evaluated for inhibition of viral replication according to published procedures (Bartenschlager, R., et. al., Science, 1999, 285, 110) with modifications as follows.
HuH-7 replicon cells 5–15 and 9–13 were cultured in Dulbecco's minimal essential medium (DMEM) containing high glucose and supplemented with 10% fetal bovine serum (FBS), L-glutamine (2 mM), non-essential amino acids (1×), Penicillin (100 IU/mL)/Streptomycin (100 μg/mL) and G418 (Geneticin, 750 μg/mL). Unless otherwise specified, all media components were obtained from Invitrogen. Replicon cell line stocks were maintained as sub-confluent monolayers by passaging every Monday (1:6 split) and Thursday (1:10 split) and incubated at 37° C. with 5% CO2. Tissue culture plates (96-well white clear bottom plates, Corning #3610) were seeded at 7×10^3 cells/well and incubated for 24 hours prior to addition of the compounds.
Compounds in dry powder form were diluted in DMSO (30 mM stock). Serial dilutions of each Compound in DMSO (10 mM–0.1 mM) were performed in a 96-well polypropylene plate using a microtiter format. Culture media (200 μl) was added to the corresponding wells of a sterile 96-well round bottom plate. Diluted compound (2 μl) was added to the corresponding wells of the medial plate (final compound concentrations: 100 μM–1 μM). Culture media was removed from the corresponding wells of the 96-well plate containing the replicon cells and 150 μl diluted compound added. Media containing 1% DMSO and a serially diluted IFN were included on each plate. The cultures were incubated at 37° C. with 5% CO2 for 3 days. Cultures were observed visually for cytotoxicity or compound precipitation prior to RNA extraction described below.
Total cellular RNA was extracted by spin column technology (RNeasy 96, Qiagen) using the vacuum methodology according to the manufacturer's protocol. In brief, culture media was removed and 100 μl RLT lysis buffer containing 0.14M β-mercaptoethanol (β-ME) was added to each well. The plate was kept flat on the laboratory bench and shaken vigorously to lyse the cells. An equal volume of 70% ETOH was mixed with the lysate and added to the corresponding columns of the RNeasy 96-well plate. Vacuum was applied to draw the lysate through the filters. After ventilating the plate, buffer RW1 (1 mL) was drawn through each column. The waste tray was emptied and the filters washed twice with buffer RPE (1 mL/wash). After ventilating the tray, the RNeasy plate was removed and the bottom of the plate struck several times on a stack of paper towels to remove excess wash buffer. The waste tray was removed from the vacuum apparatus and the RNeasy 96-well plate dried by applying vacuum for 10 minutes. Total cellular RNA was eluted from the columns with two washes of 60 μl RNase-free water.
Relative quantitative multiplex RT-PCR was performed using TaqMan (TM) EZ RT Core Reagent kit (Perkin Elmer) according to the manufacturer's protocol (PE Applied Biosystems User Bulletin #2). Primer 061 (NT 61–82) and 139 (NT 139–158) amplifying a short region in the 5′ untranslated region of the HCV genome were utilized at 300 nM final concentrations. Probe #3 (NT 97–119) labeled with FAM reporter dye was utilized at 200 nM final concentration. Pre-developed human GAPDH primers and probe labeled with VIC reporter dye were obtained from PE Applied Biosystems (# 4310884E) and used according to the manufacturer's protocol. TM RT-PCR master mix was prepared containing the above primers/probe for both target RNA. Total cellular RNA (2 μl) was added to the reaction tubes of a 96-well optical plate that corresponded to the wells of the replicon culture plate. The final volume of each reaction was 50 μl. A standard curve was prepared from ten-fold serial dilutions of total cellular RNA extracated from 10^6 replicon cells and eluted in 30 μl RNase-free water. […]

| SMILES | IC50 [µM] |
| --- | --- |
| O=C(Cc1cc(C(F)(F)F)cc(C(F)(F)F)c1)N/N=C/c1ccccc1OS(=O)(=O)c1ccc(C(F)(F)F)cc1 [Compound 39, 2-[(E)-(2-{2-[3,5-bis(trifluoromethyl)phenyl]acetyl}hydrazono)-methyl]phenyl 4-(trifluoromethyl)benzenesulfonate] | < 5 |
| O=C(Cc1ccccc1Br)N/N=C/c1ccccc1OS(=O)(=O)c1ccc(C(F)(F)F)cc1 [Compound 40, 2-((E)-{2-[2-(2-bromophenyl)acetyl]hydrazono}methyl)-phenyl 4-(trifluoromethyl)benzenesulfonate] | < 5 |
| O=C(Cc1ccccc1F)N/N=C/c1ccccc1OS(=O)(=O)c1ccc(C(F)(F)F)cc1 [Compound 41, 2-((E)-{2-[2-(2-fluorophenyl)acetyl]hydrazono}methyl)-phenyl 4-(trifluoromethyl)benzenesulfonate] | < 5 |
| Cc1ccccc1CC(=O)N/N=C/c1ccccc1OS(=O)(=O)c1ccc(C(F)(F)F)cc1 [Compound 42, 2-((E)-{-[2-(2-methylphenyl)acetyl]hydrazono}methyl)-phenyl 4-(trifluoromethyl)benzenesulfonate] | < 5 |
| O=C(Cc1ccc2c(c1)OCO2)N/N=C/c1ccccc1OS(=O)(=O)c1ccc(C(F)(F)F)cc1 [Compound 43, 2-((E)-{2-[2-(1,3-benzodioxol-5-yl)acetyl]hydrazono}methyl)phenyl 4-(trifluoromethyl)benzenesulfonate] | < 5 |
| COc1ccc(CC(=O)N/N=C/c2ccccc2OS(=O)(=O)c2ccc(C(F)(F)F)cc2)cc1 [Compound 44, 2-((E)-{2-[2-(4-methoxyphenyl)acetyl]hydrazono}methyl)-phenyl 4-(trifluoromethyl)benzenesulfonate] | < 5 |
| O=C(CC1CCCCC1)N/N=C/c1ccccc1OS(=O)(=O)c1ccc(C(F)(F)F)cc1 [Compound 45, 2-{(E)-[2-(2-cyclohexylacetyl)hydrazono]methyl}phenyl4-(trifluoromethyl)benzenesulfonate] | < 5 |
| O=C(CCCc1ccccc1)N/N=C/c1ccccc1OS(=O)(=O)c1ccc(C(F)(F)F)cc1 [Compound 46, 2-{(E)-[2-(4-phenylbutanoyl)hydrazono]methyl}phenyl4-(trifluoromethyl)benzenesulfonate] | 5 to 50 |
| O=C(CCCCc1ccccc1)N/N=C/c1ccccc1OS(=O)(=O)c1ccc(C(F)(F)F)cc1 [Compound 47, 2-{(E)-[2-(5-phenylpentanoyl)hydrazono]methyl}phenyl4-(trifluoromethyl)benzenesulfonate] | 5 to 50 |
| O=C(Cc1cccc(F)c1)N/N=C/c1ccccc1OS(=O)(=O)c1ccc(C(F)(F)F)cc1 [Compound 48, 2-((E)-{2-[2-(3-fluorophenyl)acetyl]hydrazono}methyl)-phenyl 4-(trifluoromethyl)benzenesulfonate] | < 5 |
| COc1ccc2[nH]cc(CC(=O)N/N=C/c3ccccc3OS(=O)(=O)c3ccc(C(F)(F)F)cc3)c2c1 [Compound 49, 2-((E)-{2-[2-(5-methoxy-1H-indol-3-yl)acetyl]hydrazono}methyl)phenyl 4-(trifluoromethyl)benzenesulfonate] | 5 to 50 |
| COc1cc(CC(=O)N/N=C/c2ccccc2OS(=O)(=O)c2ccc(C(F)(F)F)cc2)cc(OC)c1 [Compound 50, 2-((E)-{2-[2-(3,5-dimethoxyphenyl)acetyl]hydrazono}methyl)-phenyl 4-(trifluoromethyl)benzenesulfonate] | < 5 |
| COc1ccc(CC(=O)N/N=C/c2ccccc2OS(=O)(=O)c2ccc(C(F)(F)F)cc2)c(OC)c1 [Compound 51, 2-((E)-{2-[2-(2,4-dimethoxyphenyl)acetyl]hydrazono}methyl)-phenyl 4-(trifluoromethyl)benzenesulfonate] | < 5 |
| O=C(Cc1ccc(Br)cc1)N/N=C/c1ccccc1OS(=O)(=O)c1ccc(C(F)(F)F)cc1 [Compound 52, 2-((E)-{2-[2-(4-bromophenyl)acetyl]hydrazono}methyl)-phenyl 4-(trifluoromethyl)benzenesulfonate] | < 5 |
| COc1cccc(OCC(=O)N/N=C/c2ccccc2OS(=O)(=O)c2ccc(C(F)(F)F)cc2)c1 [Compound 53, 2-((E)-{2-[2-(3-methoxyphenoxy)acetyl]hydrazono}methyl)-phenyl 4-(trifluoromethyl)benzenesulfonate] | < 5 |
| O=C(CCc1ccco1)N/N=C/c1ccccc1OS(=O)(=O)c1ccc(C(F)(F)F)cc1 [Compound 54, 2-((E)-{2-[3-(2-furyl)propanoyl]hydrazono}methyl)phenyl4-(trifluoromethyl)benzenesulfonate] | < 5 |
| COc1cc(CC(=O)N/N=C/c2ccccc2OS(=O)(=O)c2ccc(C(F)(F)F)cc2)cc(OC)c1OC [Compound 55, 2-((E)-{2-[2-(3,4,5-trimethoxyphenyl)acetyl]hydrazono}methyl)-phenyl 4-(trifluoromethyl)benzenesulfonate] | > 50 |
| O=C(Cc1ccccc1OCc1ccccc1)N/N=C/c1ccccc1OS(=O)(=O)c1ccc(C(F)(F)F)cc1 [Compound 56, 2-[(E)-(2-{2-[2-(benzyloxy)phenyl]acetyl}hydrazono)methyl]-phenyl 4-(trifluoromethyl)benzenesulfonate] | < 5 |
| O=C(Cc1ccccc1Oc1ccccc1)N/N=C/c1ccccc1OS(=O)(=O)c1ccc(C(F)(F)F)cc1 [Compound 57, 2-((E)-{2-[2-(2-phenoxyphenyl)acetyl]hydrazono}methyl)-phenyl 4-(trifluoromethyl)benzenesulfonate] | < 5 |
| COc1cccc(CCC(=O)N/N=C/c2ccccc2OS(=O)(=O)c2ccc(C(F)(F)F)cc2)c1 [Compound 58, 2-((E)-{2-[3-(3-methoxyphenyl)propanoyl]hydrazono}-methyl)phenyl 4-(trifluoromethyl)benzenesulfonate] | > 50 |
| O=C(CSc1ccccc1)N/N=C/c1ccccc1OS(=O)(=O)c1ccc(C(F)(F)F)cc1 [Compound 59, 2-((E)-{2-[2-(phenylthio)acetyl]hydrazono}methyl)-phenyl 4-(trifluoromethyl)benzenesulfonate] | < 5 |
| O=C(Cc1ccc(I)cc1)N/N=C/c1ccccc1OS(=O)(=O)c1ccc(C(F)(F)F)cc1 [Compound 60, 2-((E)-{2-[2-(4-iodophenyl)acetyl]hydrazono}methyl)-phenyl 4-(trifluoromethyl)benzenesulfonate] | < 5 |
| O=C(Cc1cncc(Br)c1)N/N=C/c1ccccc1OS(=O)(=O)c1ccc(C(F)(F)F)cc1 [Compound 61, 2-((E)-{2-[2-(5-bromopyridin-3-yl)acetyl]hydrazono}methyl)phenyl 4-(trifluoromethyl)benzenesulfonate] | < 5 |
| O=C(Cc1cccc(Br)c1)N/N=C/c1ccccc1OS(=O)(=O)c1ccc(C(F)(F)F)cc1 [Compound 62, 2-((E)-{2-[2-(3-bromophenyl)acetyl]hydrazono}methyl)-phenyl 4-(trifluoromethyl)benzenesulfonate] | < 5 |
| O=C(Cc1ccc(Cl)nc1)N/N=C/c1ccccc1OS(=O)(=O)c1ccc(C(F)(F)F)cc1 [Compound 63, 2-((E)-{2-[2-(6-chloropyridin-3-yl)acetyl]hydrazono}methyl)phenyl 4-(trifluoromethyl)benzenesulfonate] | < 5 |
| O=C(COc1ccccc1)N/N=C/c1ccccc1OS(=O)(=O)c1ccc(C(F)(F)F)cc1 [Compound 64, 2-{(E)-[2-(2-phenoxyacetyl)hydrazono]methyl}phenyl4-(trifluoromethyl)benzenesulfonate] | < 5 |
